Data as given in PubChem BioAssay AID306 (DTP/NCI, 2004).
“And” between values parts separate entries of the source, which are not always exact repeats. Equal values may be shown once. Toxic doses and inconclusive results are not listed.

Test system: BDF1 mice, L1210 Methyl-GAG-resistant leukemia, survival T/C
Test: NCI In Vivo Anticancer Drug Screen. Data for tumor model L1210 Leukemia resistant to Methyl-GAG; NSC 32946 (subcutaneous) in B6D2F1 (BDF1) mice
Conditions: endpoint: mean survival time, higher = longer survival
Protocol: The antitumor activity of compounds was measured in mice bearing transplantable tumors. Survival or tumor size were measured and the results are expressed as the measurement made in the treated group (T) divided by the measurement made in the vehicle treated control group (C). The tumor model used in this assay is L1210 Leukemia resistant to Methyl-GAG; NSC 32946 (subcutaneous) in B6D2F1 (BDF1) mice

[1] = dose: 12.5 mg/kg/injection, schedule: Q01DX Z (ip), vehicle: water
[2] = dose: 25.0 mg/kg/injection, schedule: Q01DX Z (ip), vehicle: water
[3] = dose: 50.0 mg/kg/injection, schedule: Q01DX Z (ip), vehicle: water
[4] = dose: 12.5 mg/kg/injection, schedule: Q01DX Z (ip), vehicle: carboxymethylcellulose (CMC)
[5] = dose: 25.0 mg/kg/injection, schedule: Q01DX Z (ip), vehicle: carboxymethylcellulose (CMC)
[6] = dose: 50.0 mg/kg/injection, schedule: Q01DX Z (ip), vehicle: carboxymethylcellulose (CMC)
[7] = dose: 100.0 mg/kg/injection, schedule: Q01DX Z (ip), vehicle: carboxymethylcellulose (CMC)
[8] = dose: 200.0 mg/kg/injection, schedule: Q01DX Z (ip), vehicle: carboxymethylcellulose (CMC)
[9] = dose: 62.5 mg/kg/injection, schedule: Q01DX Z (ip), vehicle: carboxymethylcellulose (CMC)
[10] = dose: 125.0 mg/kg/injection, schedule: Q01DX Z (ip), vehicle: carboxymethylcellulose (CMC)
[11] = dose: 250.0 mg/kg/injection, schedule: Q01DX Z (ip), vehicle: carboxymethylcellulose (CMC)
[12] = dose: 500.0 mg/kg/injection, schedule: Q01DX Z (ip), vehicle: carboxymethylcellulose (CMC)
[13] = dose: 3.1 mg/kg/injection, schedule: Q01DX Z (ip), vehicle: carboxymethylcellulose (CMC)
[14] = dose: 6.25 mg/kg/injection, schedule: Q01DX Z (ip), vehicle: carboxymethylcellulose (CMC)

COS(C)(=O)=O
T/C [1]: 101 % of control | T/C [2]: 98 % of control and 99 % of control | T/C [3]: 103 % of control and 112 % of control

C=CC(CN1CC1)OC(C)=O (stereo not given)
T/C (dose: 0.95 mg/kg/injection, schedule: Q01DX Z (ip), vehicle: carboxymethylcellulose (CMC)): 100 % of control | T/C (dose: 1.9 mg/kg/injection, schedule: Q01DX Z (ip), vehicle: carboxymethylcellulose (CMC)): 118 % of control | T/C (dose: 3.8 mg/kg/injection, schedule: Q01DX Z (ip), vehicle: carboxymethylcellulose (CMC)): 118 % of control | T/C (dose: 7.5 mg/kg/injection, schedule: Q01DX Z (ip), vehicle: carboxymethylcellulose (CMC)): 120 % of control

CSc1ncnc2nc[nH]c12
T/C [4]: 106 % of control | T/C [5]: 111 % of control | T/C [6]: 106 % of control | T/C [7]: 115 % of control | T/C [8]: 97 % of control

CN(C)c1nc(N(C)C)nc(N(C)C)n1
T/C [9]: 100 % of control | T/C [10]: 95 % of control | T/C [11]: 100 % of control | T/C [12]: 100 % of control | T/C (dose: 1000.0 mg/kg/injection, schedule: Q01DX Z (ip), vehicle: methylcellulose (MC)): 98 % of control

CC/C(=C(/CC)c1ccc(O)cc1)c1ccc(O)cc1
T/C (dose: 31.25 mg/kg/injection, schedule: Q01DX Z (sc), vehicle: steriod suspending solution): 97 % of control | T/C (dose: 62.5 mg/kg/injection, schedule: Q01DX Z (sc), vehicle: steriod suspending solution): 110 % of control | T/C (dose: 125.0 mg/kg/injection, schedule: Q01DX Z (sc), vehicle: steriod suspending solution): 100 % of control | T/C (dose: 250.0 mg/kg/injection, schedule: Q01DX Z (sc), vehicle: steriod suspending solution): 87 % of control

Cc1n[nH]c(=O)[nH]c1=O
T/C (dose: 0.8 mg/kg/injection, schedule: Q01DX Z (ip), vehicle: other): 100 % of control | T/C (dose: 1.6 mg/kg/injection, schedule: Q01DX Z (ip), vehicle: other): 102 % of control | T/C (dose: 3.1 mg/kg/injection, schedule: Q01DX Z (ip), vehicle: other): 98 % of control | T/C (dose: 6.25 mg/kg/injection, schedule: Q01DX Z (ip), vehicle: other): 120 % of control | T/C (dose: 6.3 mg/kg/injection, schedule: Q01DX Z (ip), vehicle: other): 100 % of control | T/C (dose: 12.5 mg/kg/injection, schedule: Q01DX Z (ip), vehicle: other): 101 % of control | T/C (dose: 25.0 mg/kg/injection, schedule: Q01DX Z (ip), vehicle: other): 100 % of control | T/C (dose: 50.0 mg/kg/injection, schedule: Q01DX Z (ip), vehicle: other): 95 % of control and 103 % of control | T/C (dose: 100.0 mg/kg/injection, schedule: Q01DX Z (ip), vehicle: other): 91 % of control | T/C (dose: 200.0 mg/kg/injection, schedule: Q01DX Z (ip), vehicle: other): 88 % of control | T/C (dose: 400.0 mg/kg/injection, schedule: Q01DX Z (ip), vehicle: other): 89 % of control

CS(=O)(=O)OCCCCOS(C)(=O)=O
T/C (dose: 0.4 mg/kg/injection, schedule: Q01DX Z (ip), vehicle: methylcellulose (MC)): 102 % of control | T/C (dose: 1.6 mg/kg/injection, schedule: Q01DX Z (ip), vehicle: methylcellulose (MC)): 102 % of control | T/C (dose: 3.2 mg/kg/injection, schedule: Q01DX Z (ip), vehicle: methylcellulose (MC)): 86 % of control | T/C (dose: 6.4 mg/kg/injection, schedule: Q01DX Z (ip), vehicle: methylcellulose (MC)): 88 % of control and 102 % of control

COc1cc2c(c(OC)c1OC)-c1ccc(OC)c(=O)cc1[C@@H](NC(C)=O)CC2
T/C (dose: 0.12 mg/kg/injection, schedule: Q01DX Z (ip), vehicle: saline): 95 % of control | T/C (dose: 0.25 mg/kg/injection, schedule: Q01DX Z (ip), vehicle: saline): 96 % of control | T/C (dose: 0.5 mg/kg/injection, schedule: Q01DX Z (ip), vehicle: saline): 101 % of control

C[C@@H]1C[C@H]2CC[C@H](O2)[C@H](C)C(=O)O[C@@H](C)C[C@@H]2CC[C@@H](O2)[C@@H](C)C(=O)O[C@H](C)C[C@H]2CC[C@H](O2)[C@H](C)C(=O)O[C@@H](C)C[C@@H]2CC[C@@H](O2)[C@@H](C)C(=O)O1
T/C [5]: 97 % of control | T/C [6]: 91 % of control | T/C [7]: 91 % of control | T/C [8]: 97 % of control

C[C@@H]1C[C@@H]([C@H](O)CC2CC(=O)NC(=O)C2)C(=O)[C@@H](C)C1
T/C (dose: 9.4 mg/kg/injection, schedule: Q01DX Z (ip), vehicle: water): 90 % of control | T/C [1]: 114 % of control and 122 % of control (2×) | T/C (dose: 18.8 mg/kg/injection, schedule: Q01DX Z (ip), vehicle: water): 93 % of control | T/C [2]: 156 % of control | T/C (dose: 37.5 mg/kg/injection, schedule: Q01DX Z (ip), vehicle: water): 124 % of control | T/C [3]: 108 % of control

CCCCn1cnc2c(=S)nc[nH]c21
T/C [13]: 91 % of control | T/C [14]: 113 % of control | T/C [4]: 97 % of control | T/C [5]: 103 % of control

OCC1OC(n2cnc3c(Cl)ncnc32)C(O)C1O (stereo not given)
T/C [9]: 96 % of control | T/C [10]: 94 % of control | T/C [11]: 99 % of control | T/C [12]: 88 % of control and 102 % of control | T/C (dose: 1000.0 mg/kg/injection, schedule: Q01DX Z (ip), vehicle: carboxymethylcellulose (CMC)): 91 % of control

O=NN(CCCl)C(=O)NCCCl
T/C (dose: 1.0 mg/kg/injection, schedule: Q01DX Z (ip), vehicle: saline): 122 % of control | T/C (dose: 2.0 mg/kg/injection, schedule: Q01DX Z (ip), vehicle: saline): 155 % of control | T/C (dose: 4.0 mg/kg/injection, schedule: Q01DX Z (ip), vehicle: saline): 202 % of control | T/C (dose: 8.0 mg/kg/injection, schedule: Q01DX Z (ip), vehicle: saline): 172 % of control | T/C (dose: 16.0 mg/kg/injection, schedule: Q01DX Z (ip), vehicle: saline): 92 % of control | T/C (dose: 32.0 mg/kg/injection, schedule: Q01DX Z (ip), vehicle: saline): 92 % of control

N=[N+]=CC(=O)OCC(N)C(=O)O (stereo not given)
T/C (dose: 1.56 mg/kg/injection, schedule: Q01DX Z (ip), vehicle: saline): 104 % of control | T/C (dose: 3.12 mg/kg/injection, schedule: Q01DX Z (ip), vehicle: saline): 104 % of control | T/C (dose: 4.7 mg/kg/injection, schedule: Q01DX Z (ip), vehicle: saline): 100 % of control | T/C (dose: 12.5 mg/kg/injection, schedule: Q01DX Z (ip), vehicle: saline): 156 % of control and 150 % of control | T/C (dose: 18.8 mg/kg/injection, schedule: Q01DX Z (ip), vehicle: saline): 104 % of control | T/C (dose: 25.0 mg/kg/injection, schedule: Q01DX Z (ip), vehicle: saline): 116 % of control

CN(C)CC(=O)c1ccc(O)c(O)c1
T/C (dose: 31.25 mg/kg/injection, schedule: Q01DX Z (ip), vehicle: saline): 98 % of control | T/C (dose: 62.5 mg/kg/injection, schedule: Q01DX Z (ip), vehicle: saline): 96 % of control | T/C (dose: 125.0 mg/kg/injection, schedule: Q01DX Z (ip), vehicle: saline): 99 % of control | T/C (dose: 250.0 mg/kg/injection, schedule: Q01DX Z (ip), vehicle: saline): 99 % of control and 100 % of control | T/C (dose: 500.0 mg/kg/injection, schedule: Q01DX Z (ip), vehicle: saline): 97 % of control and 106 % of control

CN(C)c1ccc(/C=C\c2ccnc3ccccc23)cc1
T/C (dose: 0.4 mg/kg/injection, schedule: Q01DX Z (ip), vehicle: water): 97 % of control and 107 % of control | T/C (dose: 0.8 mg/kg/injection, schedule: Q01DX Z (ip), vehicle: water): 89 % of control and 105 % of control | T/C (dose: 1.6 mg/kg/injection, schedule: Q01DX Z (ip), vehicle: water): 104 % of control | T/C (dose: 3.1 mg/kg/injection, schedule: Q01DX Z (ip), vehicle: water): 101 % of control | T/C (dose: 6.25 mg/kg/injection, schedule: Q01DX Z (ip), vehicle: water): 90 % of control | T/C [1]: 95 % of control | T/C [2]: 104 % of control | T/C [3]: 97 % of control and 107 % of control

Nc1ncnc2[nH]ncc12
T/C (dose: 0.8 mg/kg/injection, schedule: Q01DX Z (ip), vehicle: carboxymethylcellulose (CMC)): 102 % of control | T/C (dose: 1.6 mg/kg/injection, schedule: Q01DX Z (ip), vehicle: carboxymethylcellulose (CMC)): 100 % of control | T/C [13]: 104 % of control | T/C [14]: 106 % of control | T/C [4]: 102 % of control | T/C [5]: 90 % of control | T/C [6]: 93 % of control and 96 % of control
